# Laboratory results: patent publication US6370478B1, “Methods for drug interaction prediction using biological response profiles” (Rosetta Inpharmatics, Inc., priority 1998, dated 2002)
# Legend:
# [1] = test system: Yeast (Saccharomyces cerevisiae, Strain YPH499) mRNA transcripts; experiment: Yeast mRNA response profiles measured with DNA microarrays (transcript measurement); type: cell-based
# Procedure: Experimental methods were described in Marton et al., 1998, Drug Target Validation And Identification of Secondary Drug Target Effects Using DNA Microarrays, NATURE-MEDICINE 4:1293-301, incorporated herein by reference for all purposes. Dose response curves are plotted only for about 50 genes with the largest responses. […] In this case, any concentration near or above about 1 μg/ml would be informative, and the choice could be refined based on knowledge of the significance of the set of genes that responds at the higher concentrations.
# The following experimental methods were used for all the examples. Specific experimental design is described by the examples and their accompanying figures. The specific protocol was also described in Marton et al., 1998, Drug Target Validation And Identification of Secondary Drug Target Effects Using DNA Microarrays, NATURE-MEDICINE 4:1293-301.
# Yeast (Saccharomyces cerevisiae, Strain YPH499, see, Sikorski and Hieter, 1989, A system of shuttle vectors and yeast host strains designated for efficient manipulation of DNA in Saccharomyces cerevisiae, Genetics 122:19-27) cells were grown in YAPD at 30° C. to an OD600 of 1.0 (±0.2), and total RNA prepared by breaking cells in phenol/chloroform and 0.1 % SDS by standard procedures (Ausubel et al., 1995, Current Protocols in Molecular Biology, Greene Publishing and Wiley-Interscience, New York, Ch. 13). Poly(A)^+ RNA was selected by affinity chromatography on oligo-dT cellulose (New England Biolabs) essentially as described in Sambrook et al. (Molecular Cloning—A Laboratory Manual (2nd Ed.), Vol. 1, Cold Spring Harbor Laboratory, Cold Spring Harbor, N.Y., 1989). […]
# Fluorescently-labeled cDNAs (2-6 μg) are resuspended in 4×SSC plus 1 μg/μl tRNA as carrier and filtered using […] filters (Millipore, Bedford, Mass.). […] Microarrays were scanned with a fluorescence laser-scanning device as previously described (Schena et al., 1995, Science 270:467-470; Schena et al., 1995, Proc. Natl. Acad. Sci. USA 93:[…]) and the results (including the positions of perturbations) are recorded.
# wild type yeast cells = settings: 10 micrograms/ml; Gari et al., 1997; cited from earlier work
structure (smiles),measurement,setting,value
C=CC[C@@H]1/C=C(\C)C[C@H](C)C[C@H](OC)[C@H]2O[C@@](O)(C(=O)C(=O)N3CCCC[C@H]3C(=O)O[C@H](/C(C)=C/[C@@H]3CC[C@@H](O)[C@H](OC)C3)[C@H](C)[C@@H](O)CC1=O)[C@H](C)C[C@@H]2OC [FK506],concentration at which genes mediated by the primary target (calcineurin) reach saturation response,"[1]; FIG. 1, dose response of about 50 genes with the largest responses",about 1 μg/ml
same,correlation coefficient between the two drug response profiles,"[1]; FK506 (1.6 μg/ml) vs Cyclosporin A (30 μg/ml), genes with significant up and down regulations at the 95% confidence level, FIG. 3",0.86
C[C@H]1c2cccc(O)c2C(=O)C2=C(O)[C@]3(O)C(=O)C(C(N)=O)=C(O)[C@@H](N(C)C)[C@@H]3[C@@H](O)[C@@H]21 [doxycycline],effect on the growth rate,wild type yeast cells,no significant effect
Clc1ccccc1C(c1ccccc1)(c1ccccc1)n1ccnc1 [Clotrimazole],relationship of the response profiles of Clotrimazole and Cyclosporin A,"[1]; FIG. 4, overlap with effects of opposite sign",anti-correlation
